Data on 28 compounds can be found in patent publication US20230148214A1, “INDAZOLES AND AZAINDAZOLES AS LRRK2 INHIBITORS” (ESCAPE Bio, Inc., priority 2020, published 2023).

This experiment deals with T1, LRRK2 WT (Homo sapiens, UniProt Q5S007).
T1 construct: purchased Life Technologies PR8604B
The experiment is described as follows: LRRK2 Kinase Activity Assay (LanthaScreen TR-FRET), wild type. Conditions: recombinant wild type LRRK2, 25 μM ATP, 400 nM LRRKtide, 60 min; class symbols. It counts as biochemical. How it is done: LRRK2 kinase activity was measured using a LanthaScreen™ Kinase Activity Assay from ThermoFisher Scientific. Recombinant wild type or G2019S-LRRK2 protein (Life Technologies, PR8604B or PV4881, respectively), was incubated with a fluorescein-labeled peptide substrate called LRRKtide that is based upon ezrin/radixin/moesin (ERM) (Life Technologies, PV4901) in the presence of ATP and serially diluted compound. […] Compound-dependent inhibition of the TR-FRET signal was used to generate a concentration-response curve for IC50 determination.
After 60 min incubation at room temperature, the reaction was stopped by addition of 10 μL of 2×stop solution containing a final concentration of 2 nM anti-pERM antibody and 10 mM EDTA.
A general note: TR-FRET usually uses a lanthanide donor and a delayed reading to cut background.

The structures appear in SMILES notation. A value given as a limit tells only on which side of the number the result lay.

T1 sequence (Q5S007 whole entry): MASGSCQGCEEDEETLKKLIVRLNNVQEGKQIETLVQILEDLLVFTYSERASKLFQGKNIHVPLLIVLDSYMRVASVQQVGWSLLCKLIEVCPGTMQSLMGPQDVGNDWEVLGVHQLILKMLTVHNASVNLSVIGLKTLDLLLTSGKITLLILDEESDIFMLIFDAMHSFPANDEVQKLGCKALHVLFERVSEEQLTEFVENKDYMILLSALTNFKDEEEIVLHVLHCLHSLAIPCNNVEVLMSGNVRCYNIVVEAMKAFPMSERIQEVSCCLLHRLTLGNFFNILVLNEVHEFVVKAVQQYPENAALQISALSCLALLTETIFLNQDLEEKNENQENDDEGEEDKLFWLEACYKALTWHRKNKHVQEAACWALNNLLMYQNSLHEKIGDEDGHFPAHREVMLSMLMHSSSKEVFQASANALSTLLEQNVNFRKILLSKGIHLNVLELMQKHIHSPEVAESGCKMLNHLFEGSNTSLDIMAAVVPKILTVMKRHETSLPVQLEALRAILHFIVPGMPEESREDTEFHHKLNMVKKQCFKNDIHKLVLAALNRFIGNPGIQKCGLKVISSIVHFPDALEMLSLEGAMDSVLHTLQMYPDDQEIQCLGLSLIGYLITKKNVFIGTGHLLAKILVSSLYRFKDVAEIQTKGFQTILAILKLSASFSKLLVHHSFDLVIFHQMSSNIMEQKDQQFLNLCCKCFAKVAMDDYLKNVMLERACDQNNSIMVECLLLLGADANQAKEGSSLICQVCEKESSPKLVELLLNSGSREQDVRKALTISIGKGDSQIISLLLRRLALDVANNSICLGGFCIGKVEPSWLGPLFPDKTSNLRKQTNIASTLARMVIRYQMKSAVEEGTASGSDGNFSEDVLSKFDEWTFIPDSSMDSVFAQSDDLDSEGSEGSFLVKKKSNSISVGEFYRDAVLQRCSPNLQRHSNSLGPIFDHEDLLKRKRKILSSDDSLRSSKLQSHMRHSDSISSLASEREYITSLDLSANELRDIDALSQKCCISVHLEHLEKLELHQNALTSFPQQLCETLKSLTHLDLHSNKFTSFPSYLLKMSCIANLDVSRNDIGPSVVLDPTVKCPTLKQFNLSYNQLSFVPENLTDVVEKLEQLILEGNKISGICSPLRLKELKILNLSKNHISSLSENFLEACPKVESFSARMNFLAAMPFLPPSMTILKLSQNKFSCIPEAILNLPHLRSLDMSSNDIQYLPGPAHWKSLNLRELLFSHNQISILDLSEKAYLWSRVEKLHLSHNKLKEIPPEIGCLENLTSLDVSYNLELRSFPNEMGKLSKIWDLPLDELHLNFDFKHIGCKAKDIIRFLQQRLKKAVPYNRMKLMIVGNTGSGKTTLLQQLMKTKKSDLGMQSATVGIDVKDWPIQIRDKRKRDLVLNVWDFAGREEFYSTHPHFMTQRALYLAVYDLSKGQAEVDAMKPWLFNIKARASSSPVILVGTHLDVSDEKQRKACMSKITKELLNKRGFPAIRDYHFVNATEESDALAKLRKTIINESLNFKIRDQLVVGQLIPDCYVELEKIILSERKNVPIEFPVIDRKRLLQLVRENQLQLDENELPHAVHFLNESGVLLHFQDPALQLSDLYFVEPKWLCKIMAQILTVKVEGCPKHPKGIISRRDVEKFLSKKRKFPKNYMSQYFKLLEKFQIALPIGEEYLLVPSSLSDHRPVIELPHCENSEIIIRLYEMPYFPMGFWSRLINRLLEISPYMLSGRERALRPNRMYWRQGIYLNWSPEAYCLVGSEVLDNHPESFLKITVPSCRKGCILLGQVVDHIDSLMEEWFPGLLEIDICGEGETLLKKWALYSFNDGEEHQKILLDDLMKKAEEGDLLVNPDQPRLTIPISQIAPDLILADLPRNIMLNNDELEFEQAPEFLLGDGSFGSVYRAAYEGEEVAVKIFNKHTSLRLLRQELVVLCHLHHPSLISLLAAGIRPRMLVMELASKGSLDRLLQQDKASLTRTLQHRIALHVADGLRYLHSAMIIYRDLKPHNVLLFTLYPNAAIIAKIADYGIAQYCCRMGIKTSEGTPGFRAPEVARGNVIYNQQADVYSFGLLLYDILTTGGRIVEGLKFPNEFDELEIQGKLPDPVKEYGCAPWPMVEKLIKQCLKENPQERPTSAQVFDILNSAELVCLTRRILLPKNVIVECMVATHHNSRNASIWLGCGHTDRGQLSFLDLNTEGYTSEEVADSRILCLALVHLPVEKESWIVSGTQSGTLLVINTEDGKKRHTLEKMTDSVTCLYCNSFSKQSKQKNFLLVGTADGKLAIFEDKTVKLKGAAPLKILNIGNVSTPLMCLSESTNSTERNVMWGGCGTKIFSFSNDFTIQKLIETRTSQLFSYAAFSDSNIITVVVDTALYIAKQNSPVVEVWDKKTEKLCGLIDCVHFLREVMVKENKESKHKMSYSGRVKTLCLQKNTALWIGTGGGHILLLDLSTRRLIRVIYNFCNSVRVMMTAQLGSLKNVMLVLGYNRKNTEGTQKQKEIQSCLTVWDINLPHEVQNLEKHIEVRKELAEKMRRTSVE

The term IC50 denotes the concentration that gives 50% inhibition. As for `Cc1cc(C#N)cc2c1[C@@H](Oc1ccc3[nH]nc(-c4cnco4)c3c1)CC2` (single isomer, unassigned) [Example 14, enantiomer 2, 7-Methyl-1-((3-(oxazol-5-yl)-1H-indazol-5-yl)oxy)-2,3-dihydro-1H-indene-5-carbonitrile], the IC50 is less than 100 nM.
Take `N#Cc1cnc2c(c1)CCC[C@@H]2Oc1ccc2[nH]nc(-c3cnco3)c2c1` (single isomer, unassigned) [Example 16, enantiomer 2, 8-((3-(Oxazol-5-yl)-1H-indazol-5-yl)oxy)-5,6,7,8-tetrahydroquinoline-3-carbonitrile]: the IC50 was less than 100 nM.
For the compound `N#Cc1ccc2c(c1)CCC[C@@H]2Oc1ccc2[nH]nc(-c3cnco3)c2c1` (single isomer, unassigned) [Example 18, enantiomer 2, 5-((3-(Oxazol-5-yl)-1H-indazol-5-yl)oxy)-5,6,7,8-tetrahydronaphthalene-2-carbonitrile], the IC50 is less than 100 nM.
Take `Cc1c(C#N)ccc2c1CC[C@@H]2Oc1ccc2[nH]nc(-c3cnco3)c2c1` (single isomer, unassigned) [Example 22, enantiomer 2, 4-Methyl-1-((3-(oxazol-5-yl)-1H-indazol-5-yl)oxy)-2,3-dihydro-1H-indene-5-carbonitrile]: the half-maximal inhibitory concentration (IC50) is less than 100 nM.
On to `N#Cc1cc2c(cc1F)[C@@H](Oc1ccc3[nH]nc(-c4cnco4)c3c1)CC2` (single isomer, unassigned) [Example 23, enantiomer 2, 6-Fluoro-1-((3-(oxazol-5-yl)-1H-indazol-5-yl)oxy)-2,3-dihydro-1H-indene-5-carbonitrile], for which the IC50 is less than 100 nM.
For `N#Cc1ccc2c(c1F)CC[C@@H]2Oc1ccc2[nH]nc(-c3cnco3)c2c1` (single isomer, unassigned) [Example 24, enantiomer 2, 4-Fluoro-1-((3-(oxazol-5-yl)-1H-indazol-5-yl)oxy)-2,3-dihydro-1H-indene-5-carbonitrile], the IC50 was less than 100 nM.
As for `N#Cc1cc2c(cc1F)[C@@H](Nc1ccc3[nH]nc(-c4cnco4)c3c1)CC2` (single isomer, unassigned) [Example 25, enantiomer 2, 6-Fluoro-1-((3-(oxazol-5-yl)-1H-indazol-5-yl)amino)-2,3-dihydro-1H-indene-5-carbonitrile], the concentration for half-maximal inhibition (IC50) is less than 100 nM.
With `N#Cc1ccc2c(c1F)CC[C@@H]2Nc1ccc2[nH]nc(-c3cnco3)c2c1` (single isomer, unassigned) [Example 26, enantiomer 2, 4-Fluoro-1-((3-(oxazol-5-yl)-1H-indazol-5-yl)amino)-2,3-dihydro-1H-indene-5-carbonitrile], the concentration for half-maximal inhibition (IC50) is less than 100 nM.
On to `Cc1c(C#N)ccc2c1CC[C@@H]2Nc1ccc2[nH]nc(-c3cnco3)c2c1` (single isomer, unassigned) [Example 27, enantiomer 2, 4-methyl-1-((3-(oxazol-5-yl)-1H-indazol-5-yl)amino)-2,3-dihydro-1H-indene-5-carbonitrile], for which the 50% inhibitory concentration (IC50) was less than 100 nM.
As to `Cc1cc2c(cc1C#N)CC[C@@H]2Nc1ccc2[nH]nc(-c3cnco3)c2c1` (single isomer, unassigned) [Example 28, enantiomer 2, 6-Methyl-1-((3-(oxazol-5-yl)-1H-indazol-5-yl)amino)-2,3-dihydro-1H-indene-5-carbonitrile], the half-inhibitory concentration (IC50) is less than 100 nM.
For `Cc1cc2c(cc1C#N)CC[C@H]2Oc1ccc2[nH]nc(-c3cnco3)c2c1` (single isomer, unassigned) [Example 29, enantiomer 2, 6-Methyl-1-((3-(oxazol-5-yl)-1H-indazol-5-yl)oxy)-2,3-dihydro-1H-indene-5-carbonitrile], the IC50 was less than 100 nM.
On to `N#Cc1cccc2c1[C@@H](Oc1ccc3[nH]nc(-c4cnco4)c3c1)CC2` (single isomer, unassigned) [Example 37, enantiomer 2, 3-((3-(Oxazol-5-yl)-1H-indazol-5-yl)oxy)-2,3-dihydro-1H-indene-4-carbonitrile], for which the half-maximal inhibitory concentration (IC50) is less than 100 nM.
In the case of `N#Cc1ccc2c(c1)CCC[C@@H]2Oc1ccc2[nH]nc(-c3ccnc(N4CCOCC4)c3)c2c1` (single isomer, unassigned) [Example 39, enantiomer 2, 5-((3-(2-Morpholinopyridin-4-yl)-1H-indazol-5-yl)oxy)-5,6,7,8-tetrahydronaphthalene-2-carbonitrile], the concentration for half-maximal inhibition (IC50) is less than 100 nM.
As for `COc1cc(-c2n[nH]c3ccc(N[C@H]4CCc5cc(C#N)ccc54)cc23)ccn1` (single isomer, unassigned) [Example 40, enantiomer 2, 1-((3-(2-Methoxypyridin-4-yl)-1H-indazol-5-yl)amino)-2,3-dihydro-1H-indene-5-carbonitrile], the figure is less than 100 nM.
On to `N#Cc1cc2c(nn1)[C@@H](Oc1ccc3[nH]nc(-c4cnco4)c3c1)CC2` (single isomer, unassigned) [Example 41, enantiomer 2, 7-((3-(Oxazol-5-yl)-1H-indazol-5-yl)oxy)-6,7-dihydro-5H-cyclopenta[c]pyridazine-3-carbonitrile], for which the half-maximal inhibitory concentration (IC50) was less than 100 nM.
As for `N#Cc1ccc2c(c1)CC(F)(F)[C@@H]2Nc1ccc2[nH]nc(-c3cnco3)c2c1` (single isomer, unassigned) [Example 42, enantiomer 2, 2,2-Difluoro-1-((3-(oxazol-5-yl)-1H-indazol-5-yl)amino)-2,3-dihydro-1H-indene-5-carbonitrile], the IC50 was less than 100 nM.
For `N#Cc1cnc2c(c1)C1CC1[C@@H]2Nc1ccc2[nH]nc(-c3cnco3)c2c1` (single isomer, unassigned) [Example 48, enantiomer 2, 6-((3-(Oxazol-5-yl)-1H-indazol-5-yl)amino)-4b,5,5a,6-tetrahydrocyclopropa[3,4]cyclopenta[1,2-b]pyridine-3-carbonitrile], the IC50 was less than 100 nM.
Take `N#Cc1ccc2c(c1F)CC[C@@H]2Oc1ccc2[nH]nc(-c3cnn(C(F)F)c3)c2c1` (single isomer, unassigned) [Example 51, enantiomer 2, 1-((3-(1-(Difluoromethyl)-1H-pyrazol-4-yl)-1H-indazol-5-yl)oxy)-4-fluoro-2,3-dihydro-1H-indene-5-carbonitrile]: the IC50 is less than 100 nM.
In the case of `Cc1c(C#N)ccc2c1CC[C@@H]2Nc1ccc2[nH]nc(-c3cnn(C(F)F)c3)c2c1` (single isomer, unassigned) [Example 52, enantiomer 2, 1-((3-(1-(Difluoromethyl)-1H-pyrazol-4-yl)-1H-indazol-5-yl)amino)-4-methyl-2,3-dihydro-1H-indene-5-carbonitrile], the IC50 was less than 100 nM.
For `COc1c(C#N)ccc2c1CCC[C@@H]2Nc1ccc2[nH]nc(-c3cnco3)c2c1` (single isomer, unassigned) [Example 101, enantiomer 2, 1-Methoxy-5-{[3-(1,3-oxazol-5-yl)-1H-indazol-5-yl]amino}-5,6,7,8-tetrahydronaphthalene-2-carbonitrile] the value was less than 100 nM; for `N#Cc1cnc2c(c1)CC[C@@H]2Oc1ccc2[nH]nc(-c3cnco3)c2c1` (single isomer, unassigned) [Example 103, enantiomer 2, 7-((3-(Oxazol-5-yl)-1H-indazol-5-yl)oxy)-6,7-dihydro-5H-cyclopenta[b]pyridine-3-carbonitrile], less than 100 nM.
Consider `Cc1nc2c(cc1C#N)CCC[C@@H]2Nc1ccc2[nH]nc(-c3cnco3)c2c1` (single isomer, unassigned) [Example 106, enantiomer 2, 2-Methyl-8-((3-(oxazol-5-yl)-1H-indazol-5-yl)amino)-5,6,7,8-tetrahydroquinoline-3-carbonitrile], for which the half-inhibitory concentration (IC50) was less than 100 nM.
For `Cc1c(C#N)cnc2c1CC[C@@H]2Nc1ccc2[nH]nc(-c3cnco3)c2c1` (single isomer, unassigned) [Example 108, enantiomer 2, 4-Methyl-7-((3-(oxazol-5-yl)-1H-indazol-5-yl)amino)-6,7-dihydro-5H-cyclopenta[b]pyridine-3-carbonitrile] the value was less than 100 nM.
As to `N#Cc1cc2c(nc1Cl)[C@@H](Nc1ccc3[nH]nc(-c4cnco4)c3c1)CCC2` (single isomer, unassigned) [Example 112, enantiomer 2, 2-Chloro-8-((3-(oxazol-5-yl)-1H-indazol-5-yl)amino)-5,6,7,8-tetrahydroquinoline-3-carbonitrile], the IC50 was less than 100 nM.
Consider `COc1c(C#N)ccc2c1CC[C@@H]2Nc1ccc2[nH]nc(-c3cnco3)c2c1` (single isomer, unassigned) [Example 113, enantiomer 2, 4-Methoxy-1-((3-(oxazol-5-yl)-1H-indazol-5-yl)amino)-2,3-dihydro-1H-indene-5-carbonitrile], for which the half-maximal inhibitory concentration (IC50) is less than 100 nM.
For the compound `CCc1cc(-c2n[nH]c3ccc(N[C@H]4CCCc5cc(C#N)ccc54)cc23)ccn1` (single isomer, unassigned) [Example 116, enantiomer 2, 5-((3-(2-Ethylpyridin-4-yl)-1H-indazol-5-yl)amino)-5,6,7,8-tetrahydronaphthalene-2-carbonitrile], the 50% inhibitory concentration (IC50) is less than 100 nM.
For `Cc1c(C#N)ccc2c1CC[C@H]2Nc1ccc2[nH]nc(-c3cnoc3)c2c1` (single isomer, unassigned) [Example 118, enantiomer 2, 1-((3-(Isoxazol-4-yl)-1H-indazol-5-yl)amino)-4-methyl-2,3-dihydro-1H-indene-5-carbonitrile] the value was less than 100 nM; for `N#Cc1ccc2c(c1)CCC[C@H]2Nc1ccc2[nH]nc(-c3cnco3)c2c1` (single isomer, unassigned) [Example 119, enantiomer 2, 5-((3-(Oxazol-5-yl)-1H-indazol-5-yl)amino)-5,6,7,8-tetrahydronaphthalene-2-carbonitrile], less than 100 nM.
